Here are results for 41 molecules from PubChem BioAssay AID435021 (Vanderbilt High Throughput Screening Facility, 2010).

Calls of active or inactive are those of the source.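 Rule for the calls: active = response to a near-maximal acetylcholine dose cut to 15% or less of untreated controls; inactive = the rest.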

Chain of Muscarinic acetylcholine receptor M1 (Homo sapiens) (P11229 whole entry, looked up): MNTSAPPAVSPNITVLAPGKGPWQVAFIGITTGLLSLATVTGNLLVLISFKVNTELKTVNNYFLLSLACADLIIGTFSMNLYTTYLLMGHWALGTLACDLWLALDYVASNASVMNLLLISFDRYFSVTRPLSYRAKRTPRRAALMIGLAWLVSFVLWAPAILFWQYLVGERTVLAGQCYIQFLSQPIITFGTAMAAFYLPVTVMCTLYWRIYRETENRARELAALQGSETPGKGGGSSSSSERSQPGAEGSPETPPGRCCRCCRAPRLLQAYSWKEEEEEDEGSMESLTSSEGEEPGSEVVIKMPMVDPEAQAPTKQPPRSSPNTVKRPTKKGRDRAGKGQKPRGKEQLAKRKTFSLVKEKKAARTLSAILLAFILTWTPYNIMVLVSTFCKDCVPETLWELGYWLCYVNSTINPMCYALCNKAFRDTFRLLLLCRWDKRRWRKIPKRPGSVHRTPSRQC

This assay concerns the target Muscarinic acetylcholine receptor M1 (Homo sapiens) (UniProt P11229). Nature of the assay: inhibition of ACh EC80 calcium response at hM1 – cell-based, CHO-K1 hM1, Fluo-4 calcium, SAR follow-up (AID 435021). Particulars: at 30 µM, active compounds read low.
With `COc1cccc(N2CCN(C(=O)CCNS(=O)(=O)c3cccc4nsnc34)CC2)n1`, the remaining EC80 response was 14.4%.

Take `COc1cccnc1N1CCN(C(=O)CCNS(=O)(=O)c2ccc3nsnc3c2)CC1`: the remaining EC80 response was 77.1% (inactive).

Consider `O=C(CCNS(=O)(=O)c1cccc2nonc12)N1CCN(c2ccc(Br)cn2)CC1`, for which the remaining EC80 response was 0.916%.

Turning to `CN(CCC(=O)N1CCN(c2ccncc2)CC1)S(=O)(=O)c1cccc2nsnc12`, the remaining EC80 response is 35.8% (inactive).

`O=C(CCNS(=O)(=O)c1cccc2nsnc12)N1CCN(c2cc(F)ccn2)CC1`: the remaining EC80 response is 6.52%.

As for `O=C(CCNS(=O)(=O)c1cccc2nsnc12)N1CCN(c2ccccn2)CC1`, the remaining EC80 response is 16.5% (inactive).

With `O=C(CCNS(=O)(=O)c1cccc2nsnc12)N1CCN(c2nc3ccccc3s2)CC1`, the remaining EC80 response is 6.19%.

In the case of `O=C(CCNS(=O)(=O)c1cccc2nsnc12)N1CCN(c2ccnc(Cl)c2)CC1`, the remaining EC80 response was 8.91%.

Take `COc1cccnc1N1CCN(C(=O)CCNS(=O)(=O)c2cn(C)c(C)n2)CC1`: the remaining EC80 response was 98.5% (inactive).

Regarding `O=C(CCNS(=O)(=O)c1cccc2nsnc12)N1CCN(c2nccs2)CC1`, the remaining EC80 response is 5.68%.

Take `O=C(CCNS(=O)(=O)c1cccc2nsnc12)N1CCN(c2ccncc2)CC1`: the remaining EC80 response was 1.97%.

On to `O=C(C(F)CNS(=O)(=O)c1cccc2nonc12)N1CCN(c2ccncc2)CC1` (stereo unspecified), for which the remaining EC80 response was 2.42%.

Regarding `O=C(CCNS(=O)(=O)c1cccc2nsnc12)N1CCN(c2ccc(Br)cn2)CC1`, the remaining EC80 response was -0.332%.

Take `Cc1cccc(N2CCN(C(=O)CCNS(=O)(=O)c3cccc4nsnc34)CC2)n1`: the remaining EC80 response was 35.7% (inactive).

Regarding `COc1cccnc1N1CCN(C(=O)CCNS(=O)(=O)c2cccc(C#N)c2)CC1`, the remaining EC80 response was 97% (inactive).

Turning to `N#Cc1ccccc1N1CCN(C(=O)CCNS(=O)(=O)c2cccc3nsnc23)CC1`, the remaining EC80 response is 43.9% (inactive).

In the case of `O=C(CCNS(=O)(=O)c1cccc2nsnc12)N1CCN(c2cc(Cl)ccn2)CC1`, the remaining EC80 response was 10.1%.

Consider `O=C(CCNS(=O)(=O)c1cccc2nsnc12)N1CCN(c2ncc(Cl)cn2)CC1`, for which the remaining EC80 response is 7.16%.

For `O=C([C@H](F)CNS(=O)(=O)c1cccc2nonc12)N1CCN(c2ccncc2)CC1`, the remaining EC80 response was 8.19%.

As for `O=C(CCNS(=O)(=O)c1cccc2nsnc12)N1CCN(c2ncccn2)CC1`, the remaining EC80 response was 62.7% (inactive).

`Cc1ccnc(N2CCN(C(=O)CCNS(=O)(=O)c3cccc4nsnc34)CC2)c1`: the remaining EC80 response is 45.8% (inactive).

For the molecule `COc1cccnc1N1CCN(C(=O)CCNS(=O)(=O)c2cccc(-c3noc(C)n3)c2)CC1`, the remaining EC80 response is 97.5% (inactive).

On to `O=C(CCNS(=O)(=O)c1cccc2nonc12)N1CCN(c2ccncc2)CC1`, for which the remaining EC80 response was 3.02%.

`Cc1cnccc1N1CCN(C(=O)CCNS(=O)(=O)c2cccc3nsnc23)CC1`: the remaining EC80 response is 1.43%.

Consider `O=C(CCNS(=O)(=O)c1cccc2nsnc12)N1CCN(c2cc(C(F)(F)F)ccn2)CC1`, for which the remaining EC80 response was 35.4% (inactive).

On to `O=C([C@@H](F)CNS(=O)(=O)c1cccc2nonc12)N1CCN(c2ccncc2)CC1`, for which the remaining EC80 response was 56.6% (inactive).

Regarding `COc1cccnc1N1CCN(C(=O)CCNS(=O)(=O)c2ccc([N+](=O)[O-])cc2)CC1`, the remaining EC80 response was 92.7% (inactive).

On to `O=C(CCNS(=O)(=O)c1cccc2nsnc12)N1CCN(c2ncccc2C(F)(F)F)CC1`, for which the remaining EC80 response is 64.7% (inactive).

`O=C(CCNS(=O)(=O)c1cccc2nsnc12)N1CCN(c2cccnc2)CC1`: the remaining EC80 response was 13.6%.

With `COc1cccnc1N1CCN(C(=O)C(F)CNS(=O)(=O)c2cccc3nonc23)CC1` (stereo unspecified), the remaining EC80 response was 29.7% (inactive).

On to `O=C(CCNS(=O)(=O)c1cccc2nsnc12)N1CCN(c2nc3ccccc3o2)CC1`, for which the remaining EC80 response was 13.3%.

With `O=C(CCNS(=O)(=O)c1cccc2nsnc12)N1CCN(c2cccc(F)n2)CC1`, the remaining EC80 response is 3.23%.

Consider `COc1cccnc1N1CCN(C(=O)CCNS(=O)(=O)c2ccccc2C#N)CC1`, for which the remaining EC80 response is 91.8% (inactive).

`O=C(CCNS(=O)(=O)c1cccc2nsnc12)N1CCN(c2nc(Cl)ns2)CC1`: the remaining EC80 response was 31.6% (inactive).

Turning to `COc1cccnc1N1CCN(C(=O)CCNS(=O)(=O)c2ccccc2[N+](=O)[O-])CC1`, the remaining EC80 response was 90% (inactive).

On to `O=C(CCNS(=O)(=O)c1cccc2nsnc12)N1CCN(c2cccc(Cl)n2)CC1`, for which the remaining EC80 response was 5.92%.

On to `O=C(C(F)CNS(=O)(=O)c1cccc2nsnc12)N1CCN(c2ccncc2)CC1` (stereo unspecified), for which the remaining EC80 response is 13.6%.

For the molecule `O=C(CCNS(=O)(=O)c1cccc2nsnc12)N1CCN(c2ccccc2F)CC1`, the remaining EC80 response was 63.5% (inactive).

Regarding `COc1cccnc1N1CCN(C(=O)C(F)CNS(=O)(=O)c2cccc3nsnc23)CC1` (stereo unspecified), the remaining EC80 response was 19.4% (inactive).

As to `COc1ccccc1N1CCN(C(=O)CCNS(=O)(=O)c2cccc3nsnc23)CC1`, the remaining EC80 response was 102% (inactive).

Regarding `Cc1cc(Cl)nc(N2CCN(C(=O)CCNS(=O)(=O)c3cccc4nsnc34)CC2)c1C#N`, the remaining EC80 response was 3.37%.
